Measurements reported in PubChem BioAssay (NCI).
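Cultured in 96-well plates, cells were exposed to test compound for 48 hours across five concentrations. At the TGI there is no net growth.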

Tests used:
Assay in all cases: inhibition of tumour cell growth, NCI panel, 48 h
CAKI-1 renal = tested on: CAKI-1 renal
CCRF-CEM leukemia = tested on: CCRF-CEM leukemia
COLO 205 colon = tested on: COLO 205 colon
DU-145 prostate = tested on: DU-145 prostate
EKVX NSCLC = tested on: EKVX NSCLC
HS 578T breast = tested on: HS 578T breast
HT29 colon = tested on: HT29 colon
KM12 colon = tested on: KM12 colon
LOX IMVI melanoma = tested on: LOX IMVI melanoma
MDA-MB-435 = tested on: MDA-MB-435
MOLT-4 leukemia = tested on: MOLT-4 leukemia
NCI-H522 lung = tested on: NCI-H522 lung
OVCAR-4 ovarian = tested on: OVCAR-4 ovarian
PC-3 prostate = tested on: PC-3 prostate
SK-MEL-28 melanoma = tested on: SK-MEL-28 melanoma
SK-MEL-5 melanoma = tested on: SK-MEL-5 melanoma
SNB-19 CNS = tested on: SNB-19 CNS
T-47D breast = tested on: T-47D breast
U251 CNS = tested on: U251 CNS

Question: What does the source list for CCCc1c(O)c(=O)c2c(OC)cc(OC)c3c4c(OC)cc(OC)c5c(=O)c(O)c(CCC)c(c1c23)c54?
Answer: TGI (CAKI-1 renal): 2.32 µM; TGI (CCRF-CEM leukemia): 0.582 µM; TGI (COLO 205 colon): 8.94 µM; TGI (DU-145 prostate): 3.73 µM; TGI (EKVX NSCLC): 6.66 µM; TGI (HS 578T breast): 72.2 µM; TGI (HT29 colon): 6.75 µM; TGI (KM12 colon): 5.41 µM; TGI (LOX IMVI melanoma): 1.86 µM; TGI (MDA-MB-435): 10.4 µM; TGI (MOLT-4 leukemia): 1.23 µM; TGI (NCI-H522 lung): 1.15 µM; TGI (OVCAR-4 ovarian): 14.1 µM; TGI (PC-3 prostate): 18.2 µM; TGI (SK-MEL-28 melanoma): 19.1 µM; TGI (SK-MEL-5 melanoma): 1.91 µM; TGI (SNB-19 CNS): 12.7 µM; TGI (T-47D breast): 5.73 µM; TGI (U251 CNS): 11.3 µM

Question: Which results are given for c1ccc(-c2ccc(-c3cc4ccccc4[nH]3)cc2)cc1?
Answer: TGI (CAKI-1 renal): > 100 µM; TGI (CCRF-CEM leukemia): > 100 µM; TGI (COLO 205 colon): > 100 µM; TGI (DU-145 prostate): > 100 µM; TGI (EKVX NSCLC): > 100 µM; TGI (HS 578T breast): > 100 µM; TGI (HT29 colon): > 100 µM; TGI (KM12 colon): > 100 µM; TGI (LOX IMVI melanoma): > 100 µM; TGI (MDA-MB-435): > 100 µM; TGI (MOLT-4 leukemia): > 100 µM; TGI (NCI-H522 lung): > 100 µM; TGI (OVCAR-4 ovarian): > 100 µM; TGI (PC-3 prostate): > 100 µM; TGI (SK-MEL-28 melanoma): > 100 µM; TGI (SK-MEL-5 melanoma): > 100 µM; TGI (SNB-19 CNS): > 100 µM; TGI (T-47D breast): > 100 µM; TGI (U251 CNS): > 100 µM

Question: With Cc1cccc2c(=O)c3c(O)cc(O)cc3[nH]c12 as the compound, how does the TGI (CAKI-1 renal) read?
Answer: > 10 µM

Question: What about the TGI (CCRF-CEM leukemia) of the same compound?
Answer: > 10 µM

Question: And the TGI (COLO 205 colon)?
Answer: > 10 µM

Question: What about the TGI (DU-145 prostate) of the same compound?
Answer: > 10 µM

Question: And the TGI (EKVX NSCLC)?
Answer: > 10 µM

Question: What about the TGI (HS 578T breast) of the same compound?
Answer: > 10 µM

Question: And the TGI (HT29 colon)?
Answer: > 10 µM

Question: What about the TGI (KM12 colon) of the same compound?
Answer: > 10 µM

Question: What about the TGI (LOX IMVI melanoma) of the same compound?
Answer: > 10 µM

Question: What about the TGI (MDA-MB-435) of the same compound?
Answer: > 10 µM

Question: What about the TGI (MOLT-4 leukemia) of the same compound?
Answer: > 10 µM

Question: What about the TGI (NCI-H522 lung) of the same compound?
Answer: > 10 µM

Question: What about the TGI (OVCAR-4 ovarian) of the same compound?
Answer: > 10 µM

Question: And the TGI (PC-3 prostate)?
Answer: > 10 µM

Question: What about the TGI (SK-MEL-28 melanoma) of the same compound?
Answer: > 10 µM

Question: What about the TGI (SK-MEL-5 melanoma) of the same compound?
Answer: > 10 µM

Question: And the TGI (SNB-19 CNS)?
Answer: > 10 µM

Question: And the TGI (T-47D breast)?
Answer: > 10 µM

Question: What about the TGI (U251 CNS) of the same compound?
Answer: > 10 µM

Question: How did the TGI (CAKI-1 renal) turn out when C=CCOc1ccc(/C(N=Nc2ccccc2)=N/NC(=O)c2ccccc2)cc1OC was run?
Answer: > 100 µM

Question: And the TGI (CCRF-CEM leukemia)?
Answer: > 100 µM

Question: What about the TGI (COLO 205 colon) of the same compound?
Answer: > 100 µM

Question: And the TGI (DU-145 prostate)?
Answer: > 100 µM

Question: What about the TGI (EKVX NSCLC) of the same compound?
Answer: > 100 µM

Question: And the TGI (HS 578T breast)?
Answer: > 100 µM

Question: What about the TGI (HT29 colon) of the same compound?
Answer: > 100 µM

Question: And the TGI (KM12 colon)?
Answer: > 100 µM

Question: What about the TGI (LOX IMVI melanoma) of the same compound?
Answer: > 100 µM

Question: What about the TGI (MDA-MB-435) of the same compound?
Answer: > 100 µM

Question: And the TGI (MOLT-4 leukemia)?
Answer: > 100 µM

Question: And the TGI (NCI-H522 lung)?
Answer: > 100 µM

Question: And the TGI (OVCAR-4 ovarian)?
Answer: > 100 µM

Question: What about the TGI (PC-3 prostate) of the same compound?
Answer: > 100 µM

Question: What about the TGI (SK-MEL-28 melanoma) of the same compound?
Answer: > 100 µM

Question: And the TGI (SK-MEL-5 melanoma)?
Answer: > 100 µM

Question: What about the TGI (SNB-19 CNS) of the same compound?
Answer: > 100 µM

Question: What about the TGI (T-47D breast) of the same compound?
Answer: > 100 µM

Question: And the TGI (U251 CNS)?
Answer: > 100 µM

Question: Which TGI (CAKI-1 renal) does the source give for COc1cc(C[C@H]2C(=O)OC[C@@H]2Cc2ccc(OC)c(OC)c2)cc(OC)c1 here?
Answer: > 100 µM

Question: And the TGI (CCRF-CEM leukemia)?
Answer: > 100 µM

Question: And the TGI (COLO 205 colon)?
Answer: > 100 µM

Question: And the TGI (DU-145 prostate)?
Answer: > 100 µM

Question: And the TGI (EKVX NSCLC)?
Answer: > 100 µM

Question: And the TGI (HS 578T breast)?
Answer: > 100 µM

Question: What about the TGI (HT29 colon) of the same compound?
Answer: > 100 µM

Question: What about the TGI (KM12 colon) of the same compound?
Answer: > 100 µM

Question: And the TGI (LOX IMVI melanoma)?
Answer: 49.5 µM

Question: And the TGI (MDA-MB-435)?
Answer: > 100 µM

Question: And the TGI (MOLT-4 leukemia)?
Answer: > 100 µM

Question: What about the TGI (NCI-H522 lung) of the same compound?
Answer: > 100 µM

Question: And the TGI (OVCAR-4 ovarian)?
Answer: > 100 µM

Question: What about the TGI (PC-3 prostate) of the same compound?
Answer: > 100 µM

Question: And the TGI (SK-MEL-28 melanoma)?
Answer: > 100 µM

Question: And the TGI (SK-MEL-5 melanoma)?
Answer: 54.5 µM

Question: What about the TGI (SNB-19 CNS) of the same compound?
Answer: > 100 µM

Question: And the TGI (T-47D breast)?
Answer: > 100 µM

Question: And the TGI (U251 CNS)?
Answer: > 100 µM

Question: COc1cc(Cn2c(=S)ss/c2=N\C(=S)N(C)C)cc(OC)c1OC was tested. Which TGI (CAKI-1 renal) did it give?
Answer: > 100 µM

Question: What about the TGI (CCRF-CEM leukemia) of the same compound?
Answer: > 77.5 µM

Question: And the TGI (COLO 205 colon)?
Answer: > 86.9 µM

Question: What about the TGI (DU-145 prostate) of the same compound?
Answer: > 39.5 µM

Question: And the TGI (EKVX NSCLC)?
Answer: > 100 µM

Question: And the TGI (HS 578T breast)?
Answer: > 100 µM

Question: What about the TGI (HT29 colon) of the same compound?
Answer: > 100 µM

Question: And the TGI (KM12 colon)?
Answer: 30.5 µM

Question: What about the TGI (LOX IMVI melanoma) of the same compound?
Answer: > 100 µM

Question: And the TGI (MDA-MB-435)?
Answer: 15.8 µM

Question: And the TGI (MOLT-4 leukemia)?
Answer: > 100 µM

Question: And the TGI (NCI-H522 lung)?
Answer: 15.7 µM

Question: What about the TGI (OVCAR-4 ovarian) of the same compound?
Answer: > 95.6 µM

Question: What about the TGI (PC-3 prostate) of the same compound?
Answer: > 100 µM

Question: And the TGI (SK-MEL-28 melanoma)?
Answer: > 100 µM

Question: And the TGI (SK-MEL-5 melanoma)?
Answer: 56.4 µM

Question: And the TGI (SNB-19 CNS)?
Answer: > 100 µM

Question: What about the TGI (T-47D breast) of the same compound?
Answer: > 100 µM

Question: What about the TGI (U251 CNS) of the same compound?
Answer: > 82 µM

Question: CCN(CC)CCC1CCCCN1CC(=O)N1c2ccccc2NC(=O)c2ccccc21 (configuration not stated) was tested. Which TGI (CAKI-1 renal) did it give?
Answer: > 100 µM

Question: And the TGI (CCRF-CEM leukemia)?
Answer: > 100 µM

Question: What about the TGI (COLO 205 colon) of the same compound?
Answer: > 100 µM

Question: And the TGI (DU-145 prostate)?
Answer: > 100 µM

Question: And the TGI (EKVX NSCLC)?
Answer: > 100 µM

Question: What about the TGI (HS 578T breast) of the same compound?
Answer: > 100 µM

Question: What about the TGI (HT29 colon) of the same compound?
Answer: > 100 µM

Question: What about the TGI (KM12 colon) of the same compound?
Answer: > 100 µM

Question: And the TGI (LOX IMVI melanoma)?
Answer: > 100 µM

Question: And the TGI (MDA-MB-435)?
Answer: > 100 µM

Question: And the TGI (MOLT-4 leukemia)?
Answer: > 100 µM

Question: And the TGI (NCI-H522 lung)?
Answer: > 100 µM

Question: And the TGI (OVCAR-4 ovarian)?
Answer: > 100 µM

Question: What about the TGI (PC-3 prostate) of the same compound?
Answer: > 100 µM

Question: What about the TGI (SK-MEL-28 melanoma) of the same compound?
Answer: > 100 µM

Question: And the TGI (SK-MEL-5 melanoma)?
Answer: > 100 µM

Question: What about the TGI (SNB-19 CNS) of the same compound?
Answer: > 100 µM

Question: And the TGI (T-47D breast)?
Answer: > 100 µM

Question: What about the TGI (U251 CNS) of the same compound?
Answer: > 100 µM

Question: How did the TGI (CAKI-1 renal) turn out when CN=CN(C)c1c2ccccc2nc2ccccc12 was run?
Answer: > 100 µM

Question: What about the TGI (CCRF-CEM leukemia) of the same compound?
Answer: > 100 µM

Question: What about the TGI (COLO 205 colon) of the same compound?
Answer: > 100 µM

Question: And the TGI (DU-145 prostate)?
Answer: > 100 µM

Question: What about the TGI (EKVX NSCLC) of the same compound?
Answer: > 100 µM

Question: And the TGI (HS 578T breast)?
Answer: > 100 µM

Question: What about the TGI (HT29 colon) of the same compound?
Answer: > 100 µM

Question: What about the TGI (KM12 colon) of the same compound?
Answer: > 100 µM

Question: What about the TGI (LOX IMVI melanoma) of the same compound?
Answer: > 100 µM

Question: What about the TGI (MDA-MB-435) of the same compound?
Answer: > 100 µM

Question: What about the TGI (MOLT-4 leukemia) of the same compound?
Answer: > 100 µM

Question: And the TGI (NCI-H522 lung)?
Answer: > 100 µM

Question: What about the TGI (OVCAR-4 ovarian) of the same compound?
Answer: > 100 µM

Question: And the TGI (PC-3 prostate)?
Answer: > 100 µM

Question: What about the TGI (SK-MEL-28 melanoma) of the same compound?
Answer: > 100 µM

Question: And the TGI (SK-MEL-5 melanoma)?
Answer: > 100 µM

Question: What about the TGI (SNB-19 CNS) of the same compound?
Answer: > 100 µM

Question: And the TGI (T-47D breast)?
Answer: > 100 µM

Question: And the TGI (U251 CNS)?
Answer: > 100 µM
